Assay results as given in patent US11866405B2, “Substituted indazoles as IRAK4 inhibitors” (AstraZeneca AB, priority 2020, dated 2024).

How the values were obtained:
[1] = target: human recombinant IRAK4 protein (Homo sapiens (Human), UniProt Q9NWZ3); assay: IRAK4 enzyme assay (mass spectrometry readout); assay type: biochemical; conditions: 3 mM ATP, 0.2 nM enzyme; geometric mean of at least n=2, * single experiment
Experimental: Potency of IRAK4 Inhibitor Compounds in IRAK4 Enzyme Assay
The inhibitory activity of compounds against IRAK4 were determined in an enzymatic assay using mass spectrometry readout. Ten point half-log compound concentration response curves, with a top concentration of 1 μM or 10 μM, were generated from 10 mM stocks of compound solubilized in DMSO using an Echo 655 (Labcyte Inc) and added to 384 well assay plates (Greiner #781280). To the assay plates, 10 μL of human recombinant IRAK4 protein (Life Technologies #PV4002) diluted to a final concentration of 0.2 nM in assay buffer (50 mM Tris-HCl pH 7.4, 10 mM MgCl, 5 mM glutathione, 0.01% BSA, 3 mM ATP) was added. The enzyme was incubated with the compounds at room temperature for 15 minutes before a peptide substrate ([…], Innovagen custom synthesis, 10 mM in DMSO) was added to each well to a final concentration of 10 μM using an Echo 655 (Labcyte Inc). After two hours at room temperature, the reaction was stopped with 90 μL of 0.4% formic acid (Merck #33015). The unphosphorylated and phosphorylated peptide were measured by LC-MS/MS on a Waters TQ-S mass spectrometer. Peaks were integrated using the TargetLynx software and the ratios between phosphorylated and unphosphorylated peptides were calculated. Curves were fitted and compound potencies determined in Genedata Screener 15 (Genedata AG). Data presented are the geometric mean of at least n=2, or as denoted by an * are obtained from a single experiment.

[2] = target: IRAK4 auto-phosphorylation (Homo sapiens (Human), UniProt Q9NWZ3); assay: IRAK4 phosphorylation cell assay in IL-1β-stimulated Karpas-299 cells; assay type: cell-based; conditions: IL-1β 22.7 ng/mL, pIRAK4 (Thr345/Ser346), geometric mean of at least 2 experiments
Experimental: IRAK4 Phosphorylation Cell Assay
The activation of IRAK4 by TLR or IL-1R ligands leads to IRAK4 auto-phosphorylation, which can be prevented by IRAK4 kinase inhibitors. The effect of IRAK4 inhibitor compounds on IRAK4 auto-phosphorylation was assessed in IL-1β-stimulated Karpas-299 cells as a measurement of cellular potency. Karpas-299 cells were cultured in RPMI 1640 (Gibco 61870-010) containing 10% FBS (Gibco #10270). Cells were plated at 2×10^4 cells per well in poly-D-lysine coated 384 well plates (Corning #356663) to which compounds had been added at various concentrations (10 point half log dose response with a final top concentration of 30 μM) using an Echo 655 (Labcyte Inc). Cells were centrifuged (250 g, 4 mins), incubated at 37° C. for 1 h, then stimulated with 22.7 ng/mL recombinant IL-1β (R&D Systems, #201-LB-025) at 37° C. for 10 mins, followed by fixation in 4% paraformaldehyde for 10 mins and permeabilization in ice-cold 70% MeOH for 30 mins. Cells were washed twice with phosphate-buffered saline (PBS) on a BlueWasher (BlueCatBio) then blocked with PBS containing 10% FBS for 20 mins. Blocking solution was removed with a BlueWasher and cells were stained with anti-pIRAK4 (Thr345/Ser346) (CST, #11927, 1:400) in blocking buffer with 0.05% Tween-20 for 1 h, then washed twice with PBS containing 0.05% Tween-20 on a BlueWasher, followed by staining with a Alexa 647-conjugated secondary anti-rabbit IgG antibody (CST, #4414, 1:2,000) and Hoechst 33342 (Sigma, 1:2,000) in blocking buffer with 0.05% Tween-20 for 30 mins. Finally, the cells were washed twice with PBS containing 0.05% Tween-20 and imaged on an ImageXpress Micro (Molecular Devices) with a 10× air objective using the appropriate filters. Images were analysed in Columbus (PerkinElmer) and the fluorescence intensity per cell from the secondary antibody was quantified. The quantified data were analysed in Genedata Screener 15 (Genedata AG). […] IC50 values are the geometric mean of at least 2 experiments.

Chain of IRAK4 auto-phosphorylation (Q9NWZ3 whole entry): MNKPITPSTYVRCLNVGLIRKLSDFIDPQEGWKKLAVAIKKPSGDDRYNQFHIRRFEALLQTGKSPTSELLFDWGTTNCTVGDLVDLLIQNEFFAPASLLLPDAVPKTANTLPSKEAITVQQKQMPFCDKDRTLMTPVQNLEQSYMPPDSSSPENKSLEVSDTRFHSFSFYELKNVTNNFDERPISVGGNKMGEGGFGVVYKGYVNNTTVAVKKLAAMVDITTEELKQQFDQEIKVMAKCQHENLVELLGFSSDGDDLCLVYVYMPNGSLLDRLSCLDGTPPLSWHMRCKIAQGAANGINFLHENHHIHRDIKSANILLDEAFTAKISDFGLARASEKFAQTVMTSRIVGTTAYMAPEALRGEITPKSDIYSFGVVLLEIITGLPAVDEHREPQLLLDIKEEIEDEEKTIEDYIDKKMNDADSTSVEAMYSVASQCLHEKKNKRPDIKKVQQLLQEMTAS
Chain of human recombinant IRAK4 protein (Q9NWZ3 whole entry): as above

Row | IC50 [1] | IC50 [2] | SMILES
1 | 0.8 nM | 21 nM | COc1cc2nn([C@@H]3CCC(N(C)C(C)=O)C[C@H]3C)cc2cc1C(=O)Nc1cnn2cccnc12 (single isomer, unassigned) [Example 60]
2 | 24.2 nM | 238 nM | COc1cc2nn([C@@H]3CCC(N(C)C(C)=O)C[C@H]3C)cc2cc1C(=O)Nc1cnn2cccnc12 (single isomer, unassigned) [Example 61]
3 | 16 nM | 185 nM | COc1cc2nn([C@H]3CCC(N(C)C(C)=O)C[C@@H]3C)cc2cc1C(=O)Nc1cnn2cccnc12 (single isomer, unassigned) [Example 62, 6-methoxy-2-((1S,2S,4R*)-2-methyl-4-(N-methylacetamido)cyclohexyl)-N-(pyrazolo[1,5-a]pyrimidin-3-yl)-2H-indazole-5-carboxamide]
4 | 46.8 nM | 338 nM | COc1cc2nn([C@H]3CCC(N(C)C(C)=O)C[C@@H]3C)cc2cc1C(=O)Nc1cnn2cccnc12 (single isomer, unassigned) [Example 63, 6-methoxy-2-((1S,2S,4R*)-2-methyl-4-(N-methylacetamido)cyclohexyl)-N-(pyrazolo[1,5-a]pyrimidin-3-yl)-2H-indazole-5-carboxamide]
5 | 2.7 nM | 79 nM | COc1cc2nn(C3CCC4(CC3)COC(=O)N4C)cc2cc1C(=O)Nc1cnc2cccnn12 (single isomer, unassigned) [Example 74, N-(Imidazo[1,2-b]pyridazin-3-yl)-6-methoxy-2-(1-methyl-2-oxo-3-oxa-1-azaspiro[4.5]decan-8-yl)-2H-indazole-5-carboxamide]
6 | 0.3 nM | 12 nM | COc1cc2nn(C3CCC4(CC3)COC(=O)N4C)cc2cc1C(=O)Nc1cnc2cccnn12 (single isomer, unassigned) [Example 75, N-(Imidazo[1,2-b]pyridazin-3-yl)-6-methoxy-2-(1-methyl-2-oxo-3-oxa-1-azaspiro[4.5]decan-8-yl)-2H-indazole-5-carboxamide]
7 | 0.7 nM | 14 nM | COc1cc2nn([C@@H]3CC[C@H](O)[C@H](C)C3)cc2cc1C(=O)Nc1cnc2cccnn12 (single isomer, unassigned) [Example 77]
8 | 2.5 nM | 52 nM | COc1cc2nn([C@H]3CC[C@H](O)[C@H](C)C3)cc2cc1C(=O)Nc1cnc2cccnn12 (single isomer, unassigned) [Example 78]
9 | 1 nM | 21 nM | COc1cc2nn([C@H]3CC[C@H](O)[C@H](C)C3)cc2cc1C(=O)Nc1cnc2cccnn12 (single isomer, unassigned) [Example 79]
10 | 5.1 nM | 82 nM | COc1cc2nn([C@H]3CC[C@H](O)[C@@H](C)C3)cc2cc1C(=O)Nc1cnc2cccnn12 (single isomer, unassigned) [Example 81]
11 | 2.4 nM | 27 nM | COc1cc2nn([C@@H]3CC[C@H](O)[C@@H](C)C3)cc2cc1C(=O)Nc1cnc2cccnn12 (single isomer, unassigned) [Example 82]

The remaining lines, values behind:

Row | SMILES | IC50 [1] | IC50 [2]
12 | CC1(O)CC2(CCC(n3cc4cc(C(=O)Nc5cnn6cccnc56)c(OC5CC5)cc4n3)CC2)C1 (single isomer, unassigned) [Example 15, 6-Cyclopropoxy-2-(2-hydroxy-2-methylspiro[3.5]nonan-7-yl)-N-(pyrazolo[1,5-a]pyrimidin-3-yl)-2H-indazole-5-carboxamide] | 0.5 nM | 91 nM
13 | CC1(O)CC2(CCC(n3cc4cc(C(=O)Nc5cnn6cccnc56)c(OC5CC5)cc4n3)CC2)C1 (single isomer, unassigned) [Example 16, 6-Cyclopropoxy-2-(2-hydroxy-2-methylspiro[3.5]nonan-7-yl)-N-(pyrazolo[1,5-a]pyrimidin-3-yl)-2H-indazole-5-carboxamide] | 0.6 nM | 77 nM
14 | CC(=O)N1CC2(CC[C@@H](n3cc4cc(C(=O)Nc5cnn6cccnc56)c(OC5CC5)cc4n3)[C@H](C)C2)C1 (single isomer, unassigned) [Example 28] | 3 nM | 161 nM
15 | COc1cc2nn([C@H]3CCC(N(C)C(C)=O)C[C@@H]3C)cc2cc1C(=O)Nc1cnc2cccnn12 (single isomer, unassigned) [Example 35, N-(imidazo[1,2-b]pyridazin-3-yl)-6-methoxy-2-((1S,2S,4R*)-2-methyl-4-(N-methylacetamido)cyclohexyl)-2H-indazole-5-carboxamide] | 7.2 nM | 115 nM
16 | COc1cc2nn([C@@H]3CCC(N(C)C(C)=O)C[C@H]3C)cc2cc1C(=O)Nc1cnc2cccnn12 (single isomer, unassigned) [Example 36, N-(imidazo[1,2-b]pyridazin-3-yl)-6-methoxy-2-(1R,2R,4R*)-2-methyl-4-(N-methylacetamido)cyclohexyl)-2H-indazole-5-carboxamide] | 3.8 nM | 56 nM
17 | COc1cc2nn([C@H]3CC[C@H](O)C[C@@H]3C)cc2cc1C(=O)Nc1cnn2cccnc12 (single isomer, unassigned) [Example 39] | 10 nM | 160 nM
18 | C[C@H]1C[C@@H](O)CC[C@@H]1n1cc2cc(C(=O)Nc3cnn4cccnc34)c(OC3CC3)cc2n1 (single isomer, unassigned) [Example 44] | 0.8 nM | 42 nM
19 | O=C(Nc1cnn2cccnc12)c1cc2cn(C3CCC4(CC3)CC(O)C4)nc2cc1OC1CC1 (single isomer, unassigned) [Example 46, 6-Cyclopropoxy-2-(2-hydroxyspiro[3.5]nonan-7-yl)-N-(pyrazolo[1,5-a]pyrimidin-3-yl)-2H-indazole-5-carboxamide] | 0.6 nM | 56 nM
20 | O=C(Nc1cnn2cccnc12)c1cc2cn(C3CCC4(CC3)CC(O)C4)nc2cc1OC1CC1 (single isomer, unassigned) [Example 47, 6-Cyclopropoxy-2-(2-hydroxyspiro[3.5]nonan-7-yl)-N-(pyrazolo[1,5-a]pyrimidin-3-yl)-2H-indazole-5-carboxamide] | 0.5 nM | 64 nM
21 | COc1cc2nn(C3CCC(C)(O)CC3)cc2cc1C(=O)Nc1cnc2cccnn12 (single isomer, unassigned) [Example 48, 2-(4-Hydroxy-4-methylcyclohexyl)-N-(imidazo[1,2-b]pyridazin-3-yl)-6-methoxy-2H-indazole-5-carboxamide] | 0.7 nM | 17 nM
22 | COc1cc2nn(C3CCC(C)(O)CC3)cc2cc1C(=O)Nc1cnc2cccnn12 (single isomer, unassigned) [Example 49, 2-(4-Hydroxy-4-methylcyclohexyl)-N-(imidazo[1,2-b]pyridazin-3-yl)-6-methoxy-2H-indazole-5-carboxamide] | 6.1 nM | 46 nM
23 | COc1cc2nn([C@H]3CCC[C@@](C)(O)C3)cc2cc1C(=O)Nc1cnn2cccnc12 (single isomer, unassigned) [Example 50] | 3.4 nM | 84 nM
24 | COc1cc2nn([C@H]3CCC[C@@](C)(O)C3)cc2cc1C(=O)Nc1cnn2cccnc12 (single isomer, unassigned) [Example 51] | 2.8 nM | 46 nM
25 | COc1cc2nn([C@H]3CCC[C@](C)(O)C3)cc2cc1C(=O)Nc1cnn2cccnc12 (single isomer, unassigned) [Example 52] | 5.5 nM | 96 nM
26 | COc1cc2nn([C@H]3CCC[C@](C)(O)C3)cc2cc1C(=O)Nc1cnn2cccnc12 (single isomer, unassigned) [Example 53] | 3.5 nM | 49 nM
